Broadly, the IC50 is the point on the concentration scale where inhibition reaches its midpoint.

Among the data in patent publication US11478474B2, “2-(3′-(hydroxymethyl)-1-methyl-5-((5-(2-methyl-4-(oxetan-3-yl)piperazin-1-yl)pyridin-2-yl)amino)-6-oxo-1,6-dihydro-[3,4′-bipyridin]-2′-yl)-7,7-dimethyl-7,8-dihydro-2H-cyclopenta[4,5]pyrrolo[1,2-a]pyrazin-1(6H)-one as a BTK inhibitor” (HUTCHISON MEDIPHARMA LIMITED, priority 2020, dated 2022) are IC50 values, retold here.

For one assay, the target named is BTK recombinant protein (Homo sapiens (Human), UniProt Q06187). Put plainly: Determination of biochemical BTK (Z'-LYTE kinase assay). In outline: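 Human BTK recombinant kinase (3.32 nM final) was preincubated with compound for 30 min at 4 °C. Reaction ran 1 h at room temperature with Tyr01 FRET peptide (2 μM) and ATP (32 μM); development protease then added. Coumarin 445 nm/fluorescein 520 nm emission ratio (400 nm excitation) gave inhibition across 8 concentrations, 3000–1.37 nM.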

In assay [1] the target is phosphorylated BTK in Ramos cells (Homo sapiens (Human), UniProt Q06187). The assay is described as follows: Determination of phosphorylated BTK in Ramos cells (BTK phospho-Y223 HTRF). Type of assay: cell-based. As to conditions: anti-human IgM + hydrogen peroxide stimulation. The method in brief:
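BTK Y223 phosphorylation measured by HTRF (665/615 nm) in lysates of Ramos cells. Cells were serum-starved 2 h, exposed to compound for 1 h (final 0.00018–3.0 μM, 0.3% DMSO), then stimulated 10 min with 10 μg/mL anti-IgM and 3.3 mM H2O2. IC50 derived from percent inhibition between unstimulated and stimulated controls.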
(TR-FRET usually uses a lanthanide donor and a delayed reading to cut background.)

Where only a bound is given, the exact number is not on record here.

Sequence of BTK recombinant protein (Q06187 whole entry): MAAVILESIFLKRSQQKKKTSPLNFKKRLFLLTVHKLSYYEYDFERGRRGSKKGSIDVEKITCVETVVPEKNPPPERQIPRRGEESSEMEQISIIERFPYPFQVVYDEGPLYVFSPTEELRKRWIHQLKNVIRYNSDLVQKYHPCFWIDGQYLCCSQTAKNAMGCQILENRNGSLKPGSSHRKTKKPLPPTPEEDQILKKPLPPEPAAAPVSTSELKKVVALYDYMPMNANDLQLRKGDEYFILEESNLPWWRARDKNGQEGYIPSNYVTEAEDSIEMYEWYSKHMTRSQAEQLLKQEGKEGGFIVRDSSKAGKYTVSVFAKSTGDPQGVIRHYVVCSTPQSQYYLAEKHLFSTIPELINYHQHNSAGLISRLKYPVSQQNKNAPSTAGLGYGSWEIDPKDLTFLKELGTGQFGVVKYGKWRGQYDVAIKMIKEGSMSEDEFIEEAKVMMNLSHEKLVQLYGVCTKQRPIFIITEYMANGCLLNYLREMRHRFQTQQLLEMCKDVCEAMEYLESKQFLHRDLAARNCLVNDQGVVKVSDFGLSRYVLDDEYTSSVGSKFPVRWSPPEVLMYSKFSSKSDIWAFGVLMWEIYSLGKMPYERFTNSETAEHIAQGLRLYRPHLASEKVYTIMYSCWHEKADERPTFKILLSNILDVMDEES
Sequence of phosphorylated BTK in Ramos cells (Q06187 whole entry): as above

In the case of `CCCn1cc(Nc2cc(-c3ccnc(-n4ccn5c6c(cc5c4=O)CC(C)(C)C6)c3CO)cn(C)c2=O)cn1` [Compound 174], the IC50 at BTK recombinant protein is 2 nM; in assay [1] it was 44 nM.

Consider `COCCN1CCn2nc(Nc3cc(-c4ccnc(-n5ccn6c7c(cc6c5=O)CC(C)(C)C7)c4CO)cn(C)c3=O)cc2C1` [Compound 70, 2-(3′-(hydroxymethyl)-5-((5-(2-methoxymethyl)-4,5,6,7-tetrahydropyrazolo[1,5-a]pyrazin-2-yl)amino)-1-methyl-6-oxo-1,6-dihydro-[3,4′-bispyridin]-2′-yl)-7,7-dimethyl-7,8-dihydro-2H-cyclopenta[4,5]pyrrolo[1,2-a]pyrazin-1(6H)-one], for which the IC50 on BTK recombinant protein turned out to be 10 nM; in assay [1] it was 2 nM.

For the molecule `COCCN1CCn2nc(Nc3cc(-c4ccnc(-n5ccn6c7c(cc6c5=O)CC(C)(C)C7)c4CO)cn(C)c3=O)cc2[C@H]1C` [Compound 117], the IC50 at BTK recombinant protein is 4 nM; in assay [1] it was 7 nM.

For `Cc1cc(Nc2cc(-c3ccnc(-n4ncn5c6c(cc5c4=O)CC(C)(C)C6)c3CO)cn(C)c2=O)no1` [Compound 192], the IC50 at BTK recombinant protein stood at 9 nM; in assay [1], 16 nM.

For the molecule `C[C@@H]1[C@H](C)N(c2ccc(Nc3cc(-c4ccnc(-n5ccn6c7c(cc6c5=O)CC(C)(C)C7)c4CO)cn(C)c3=O)nc2)CCN1C1COC1` [Compound 234], the IC50 on BTK recombinant protein was determined as 32 nM; in assay [1], 10 nM.

On to `C[C@H]1CN(C2COC2)CCN1c1ccc(Nc2cc(-c3ccnc(-n4ncn5c6c(c(F)c5c4=O)CCCC6)c3CO)cn(C)c2=O)nc1` [Compound 186], for which the IC50 at BTK recombinant protein was 14 nM; in assay [1], 10 nM.

Take `Cn1cc(-c2ccnc(-n3ccn4c5c(c(F)c4c3=O)CCCC5)c2CO)cc(Nc2ccc(N3CCN(C4COC4)CC3(C)C)cn2)c1=O` [Compound 225]: the IC50 on BTK recombinant protein is 11 nM; in assay [1], 9 nM.

In the case of `C[C@H]1CNCCN1c1ccc(Nc2cc(-c3ccnc(-n4ccn5c6c(cc5c4=O)CC(C)(C)C6)c3CO)cn(C)c2=O)nc1` [Compound 96], the results for the IC50 (on BTK recombinant protein; in assay [1]) were 7 nM and 5 nM, respectively.

`Cn1cc(-c2ccnc(-n3ncn4c5c(cc4c3=O)CC(C)(C)C5)c2CO)cc(Nc2cc3n(n2)CCN(C2COC2)C3)c1=O` [Compound 122]: the IC50 at BTK recombinant protein is less than 1 nM; in assay [1], 7 nM.

For `Cn1cc(-c2ccnc(-n3ccn4c5c(cc4c3=O)CC(C)(C)C5)c2CO)cc(Nc2ccc(F)cn2)c1=O` [Compound 90], the IC50 at BTK recombinant protein was 26 nM; in assay [1], 7 nM.

`Cc1cc(Nc2cc(-c3ccnc(-n4ccn5c6c(cc5c4=O)CC(C)(C)C6)c3CO)cn(C)c2=O)nn1C` [Compound 82]: the figures for the IC50 (on BTK recombinant protein; in assay [1]) were 6 nM and 2 nM, respectively.

In the case of `CC[C@H]1CN(C2COC2)CCN1c1ccc(Nc2cc(-c3ccnc(-n4ccn5c6c(cc5c4=O)CC(C)(C)C6)c3CO)cn(C)c2=O)nc1` [Compound 91], the figures for the IC50 (at BTK recombinant protein; in assay [1]) were 17 nM and 4 nM, respectively.

For `Cc1ccc(Nc2cc(-c3ccnc(-n4ccn5c6c(cc5c4=O)CC(C)(C)C6)c3CO)cn(C)c2=O)nc1` [Compound 125], the IC50 on BTK recombinant protein amounted to 33 nM; in assay [1], 21 nM.

Regarding `Cc1ccc(Nc2cc(-c3ccnc(-n4ncn5c6c(cc5c4=O)CC(C)(C)C6)c3CO)cn(C)c2=O)nn1` [Compound 132], the figures for the IC50 (on BTK recombinant protein; in assay [1]) were 51 nM and 28 nM, respectively.

In the case of `Cn1cc(-c2ccnc(-n3ccn4c5c(cc4c3=O)CC(C)(C)C5)c2CO)cc(Nc2cc3n(n2)CCN(C#N)C3)c1=O` [Compound 135, 2-((2′-(7,7-dimethyl-1-oxo-1,6,7,8-tetrahydro-2H-cyclopenta[4,5]pyrrolo[1,2-a]pyrazin-2-yl)-3′-(hydroxymethyl)-1-methyl-6-oxo-1,6-dihydro-[3,4′-bispyridin]-5-yl)amino)-6,7-dihydropyrazolo[1,5-a]pyrazin-5(4H)-nitrile], the 50% inhibitory concentration (IC50) is 8 nM on BTK recombinant protein and 5 nM in assay [1].

On to `C[C@@H]1CN(c2ccc(Nc3cc(-c4ccnc(-n5ccn6c7c(cc6c5=O)CC(C)(C)C7)c4CO)cn(C)c3=O)nn2)[C@@H](C)CN1C1COC1` [Compound 205], for which the IC50 (at BTK recombinant protein; in assay [1]) was 15 nM in each case.

On to `CC1c2cc(Nc3cc(-c4ccnc(-n5ccn6c7c(cc6c5=O)CC(C)(C)C7)c4CO)cn(C)c3=O)nn2CCN1C1COC1` (centres unmarked) [Compound 112], for which the results for the IC50 (on BTK recombinant protein; in assay [1]) were 5 nM and 3 nM, respectively.

With `C[C@H]1CN(C2COC2)CCN1c1ccc(Nc2cc(-c3ccnc(-n4ccn5c6c(cc5c4=O)CC(C)(C)C6)c3CF)cn(C)c2=O)nc1` [Compound 105], the IC50 on BTK recombinant protein was 67 nM; in assay [1], 11 nM.

On to `Cc1ccc(Nc2cc(-c3ccnc(-n4ccn5c6c(cc5c4=O)CC(C)(C)C6)c3CO)cn(C)c2=O)nn1` [Compound 85], for which the IC50 on BTK recombinant protein came out at 11 nM; in assay [1] it was 2 nM.

Regarding `Cn1ccc(Nc2cc(-c3ccnc(-n4ccn5c6c(cc5c4=O)CC(C)(C)C6)c3CO)cn(C)c2=O)n1` [Compound 81], the IC50 is 8 nM at BTK recombinant protein and 2 nM in assay [1].

For `CCn1cc(Nc2cc(-c3ccnc(-n4ccn5c6c(cc5c4=O)CC(C)(C)C6)c3CO)cn(C)c2=O)cn1` [Compound 172], the IC50 on BTK recombinant protein came out at 41 nM; in assay [1], 11 nM.

`C[C@H]1CN(C2COC2)CCN1c1ccc(Nc2cc(-c3ccnc(-n4ccn5c6c(cc5c4=O)CC(C)(C)[C@H]6O)c3CO)cn(C)c2=O)nc1` [Compound 199]: the concentration for half-maximal inhibition (IC50) came to 8 nM at BTK recombinant protein and 25 nM in assay [1].

Turning to `Cn1cc(-c2ccnc(-n3ccn4c5c(cc4c3=O)CC(C)(C)C5)c2CO)cc(NC(=O)C2CC2)c1=O` [Compound 89], the concentration for half-maximal inhibition (IC50) amounted to 11 nM at BTK recombinant protein and 8 nM in assay [1].

As for `COCCN1CCn2nc(Nc3cc(-c4ccnc(-n5ccn6c7c(c(F)c6c5=O)CCCC7)c4CO)cn(C)c3=O)cc2C1` [Compound 167], the results for the half-maximal inhibitory concentration (IC50) (at BTK recombinant protein; in assay [1]) were 16 nM and 12 nM, respectively.

`Cn1cc(-c2ccnc(-n3ncn4c5c(cc4c3=O)CC(C)(C)C5)c2CO)cc(Nc2cc3n(n2)CCN(C#N)C3)c1=O` [Compound 143]: the results for the IC50 (on BTK recombinant protein; in assay [1]) were 4 nM and 5 nM, respectively.

For `CN(c1ccc(Nc2cc(-c3ccnc(-n4ccn5c6c(cc5c4=O)CC(C)(C)C6)c3CO)cn(C)c2=O)nc1)C1COC1` [Compound 41], the IC50 at BTK recombinant protein came out at 12 nM; in assay [1] it was 2 nM.

`CCn1nc(-c2ccnc(-n3ccn4c5c(cc4c3=O)CC(C)(C)C5)c2CO)cc(Nc2ccc(N3CCN(C4COC4)C[C@@H]3C)cn2)c1=O` [Compound 14]: the IC50 on BTK recombinant protein worked out at 51 nM; in assay [1] it was 14 nM.

As to `C[C@H]1CN(C2COC2)CCN1c1ccc(Nc2cc(-c3ncnc(-n4ccn5c6c(cc5c4=O)CC(C)(C)C6)c3CO)cn(C)c2=O)nc1` [Compound 65], the IC50 at BTK recombinant protein stood at 14 nM; in assay [1] it was 2 nM.

With `Cc1c(-c2ccnc(-n3ccn4c5c(cc4c3=O)CC(C)(C)C5)c2CO)cc(Nc2ccc(N3CCN(C4COC4)C[C@@H]3C)cn2)c(=O)n1C` [Compound 11], the IC50 on BTK recombinant protein was 106 nM; in assay [1] it was 155 nM.

For the molecule `[2H]C1(N2CCN(c3ccc(Nc4cc(-c5ccnc(-n6ccn7c8c(cc7c6=O)CC(C)(C)C8)c5CO)cn(C)c4=O)nc3)[C@@H](C)C2)COC1` [Compound 94], the results for the IC50 (on BTK recombinant protein; in assay [1]) were 7 nM and 2 nM, respectively.

With `Cn1cc(-c2ccnc(-n3ccn4c5c(cc4c3=O)CC(C)(C)C5)c2CO)cc(Nc2ccc(C3=CCN(C4COC4)CC3)cn2)c1=O` [Compound 36], the 50% inhibitory concentration (IC50) at BTK recombinant protein amounted to 31 nM; in assay [1], 12 nM.

`CC[C@H]1CN(C2COC2)CCN1c1ccc(Nc2cc(-c3ccnc(-n4ccn5c6c(c(F)c5c4=O)CCCC6)c3CO)cn(C)c2=O)nc1` [Compound 227]: the IC50 is 8 nM at BTK recombinant protein and 5 nM in assay [1].

Regarding `Cn1cc(-c2ccnc(-n3ccn4c5c(cc4c3=O)CC(C)(C)C5)c2CO)cc(Nc2ccc(N3CCC4(CCOC4)CC3)cn2)c1=O` [Compound 233], the IC50 at BTK recombinant protein was found to be 40 nM; in assay [1], 8 nM.

In the case of `C[C@H]1CN(C2COC2)CCN1c1ccc(Nc2cc(-c3ccnc(-n4cnn5c6c(c(F)c5c4=O)CCCC6)c3CO)cn(C)c2=O)nc1` [Compound 190], the IC50 on BTK recombinant protein was determined as 29 nM; in assay [1] it was 40 nM.

As for `COc1ccc(Nc2cc(-c3ccnc(-n4ccn5c6c(cc5c4=O)CC(C)(C)C6)c3CO)cn(C)c2=O)nn1` [Compound 169], the IC50 was determined as 60 nM at BTK recombinant protein and 30 nM in assay [1].

Take `CC[C@H]1CN(C2COC2)CCN1c1ccc(Nc2cc(-c3ccnc(-n4ncn5c6c(cc5c4=O)CC(C)(C)C6)c3CO)cn(C)c2=O)nc1` [Compound 224]: the IC50 at BTK recombinant protein came to 9 nM; in assay [1], 7 nM.

Regarding `C[C@H]1CN(C2COC2)CCN1c1ccc(Nc2cc(-c3ccnc(-n4cnn5c6c(cc5c4=O)CCCC6)c3CO)cn(C)c2=O)nc1` [Compound 184], the results for the 50% inhibitory concentration (IC50) (on BTK recombinant protein; in assay [1]) were 77 nM and 80 nM, respectively.

In the case of `CC1Cc2cc3c(=O)n(-c4nccc(-c5cc(Nc6cc7n(n6)CCOC7)c(=O)n(C)c5)c4CO)ccn3c2C1` (centres unmarked) [Compound 181], the IC50 on BTK recombinant protein amounted to 12 nM; in assay [1], 38 nM.

Turning to `Cc1nn(-c2nccc(-c3cc(Nc4cc5n(n4)CCN(C4COC4)C5)c(=O)n(C)c3)c2CO)c(=O)c2cc3c(n12)CC(C)(C)C3` [Compound 164], the IC50 on BTK recombinant protein came to 12 nM; in assay [1], 23 nM.

For `C[C@H]1CN(C2COC2)CCN1c1ccc(Nc2cc(-c3ccnc(-n4ccn5c6c(c(F)c5c4=O)CCCC6)c3CO)cn(C)c2=O)nc1` [Compound 161], the figures for the IC50 (at BTK recombinant protein; in assay [1]) were 4 nM and 7 nM, respectively.
